Where two headings read alike, the source gives them in different places.
What was measured:
[1] = tested on: S. cerevisiae BY4741 (PAD1); experiment: Selection in agar, growth of PAD1-containing yeast; assay type: cell-based, Saccharomyces cerevisiae; details: 4-Methylcinnamic acid 0.096 mM in agar, pH 4.0, 10 days at 25° C.
Experimental: (§1) Buffered YEPD containing 4-Methylcinnamic acid, was prepared as follows: glycerol 20 g/l, Bacteriological peptone 20 g/l, yeast extract […], agar 15 g/l, succinic acid 3 g/l, 4-Methylcinnamic acid 15.55 mg/l (0.096 mM). Agar was sterilised by autoclaving at pH 6.0, cooled to 50° C., adjusted to pH 4.0, then poured into Petri dishes and allowed to set. Agar plates were spread with dilute cultures of S. cerevisiae BY4741 (PAD1) (upper half of plate—FIG. 8), and dilute cultures of S. cerevisiae YO5833—Euroscarf (Δ pad1) on the lower half of the plate.

[2] = tested on: S. cerevisiae YO5833 (Δ pad1); experiment: Selection in agar, growth of Δ pad1 yeast; assay type: cell-based, Saccharomyces cerevisiae; details: 4-Methylcinnamic acid 0.096 mM in agar, pH 4.0, 10 days at 25° C.
Experimental: as §1

[3] = tested on: S. cerevisiae BY4741 (PAD1) and S. cerevisiae YO5833 (Δ pad1); experiment: Selection of PAD1-gene containing yeast in broth culture by weak acid; assay type: cell-based, Saccharomyces cerevisiae; details: buffered YEPD pH 4.0, 14 days at 25° C., growth by OD 600 nm
Experimental: Flasks were cultured at 25° C. for 14 days, shaken at 120 rpm on an orbital shaker (25 mm orbit). After 14 days, yeast growth was measured by spectrophotometer at 600 nm (Optical Density, OD 600 nm).
Yeast strains S. cerevisiae BY4741 (PAD1) and S. cerevisiae YO5833—Euroscarf (Δ pad1) were separately inoculated at 10^3 cells/ml into 100 ml conical flasks containing 50 mls buffered YEPD pH 4.0 (glycerol 20 g/l, Bacteriological peptone 20 g/l, yeast extract 10 g/l, succinic acid 3 g/l, adjusted to pH 4.0 with potassium hydroxide) each containing higher concentrations of 4-Methylcinnamic acid, 0-0.11 mM. Flasks were cultured for 14 days at 25° C., shaken at 160 rpm on an orbital shaker (25 mm orbit). After 14 days, yeast growth was measured by spectrophotometer at 600 nm (Optical Density, OD 600 nm).

[4] = tested on: Saccharomyces cerevisiae strain 62 expressing PAD1; assay type: cell-based; details: predicted decarboxylation product in headspace; weak acid 0.5 mM, YEPD pH 4, 10 h at 28° C.; 0 = no decarboxylation
Experimental: S. cerevisiae strain 62 (which expresses the PAD1 gene) was cultured for 48 hr in YEPD pH 4, Yeast extract 10 g, Peptone 20 g, Glucose 20 g, at 28° C. in a shake flask, 120 rpm. The stationary-phase cells were inoculated into capped 28 ml McCartney bottles containing 10 mls YEPD pH 4, at 1 million cells per ml. Each bottle also contained one of 70 substrate weak acids at 0.5 mM. Tubes were then shaken for 10 h at 28° C.
1 ml samples of the headspace were passed into stainless-steel thermal desorption tubes, followed by a 10 ml air flush. (Desorption tubes—89 mm×5 mm ID, packed with 200 mg Tenax TA 60-80 mesh, Phase Separations, UK).
Thermal desorption tubes were placed in a Perkin Elmer ATD400 thermal desorption system, and the volatiles transferred to the Gas Chromatograph in a 2 stage process. Primary desorption was 250° C. for 10 min with a helium flow of […]. Using a split ratio of 1:1, volatiles were retained on a cold trap (25 mg Tenax TA) held at −30° C. Secondary desorption was carried out by rapidly heating and holding the cold trap at 250° C. for 2 min, with a helium flow of 20 ml/min and split ratio of 19:1. A DB624 column {30 m×0.32 mm, 1.8 microns film thickness} installed in a Carbo Erba GC800 was used to achieve separation and introduction of the volatile to the mass spectrometer. The column temperature was held at 40° C. for 2 min then increased at 5° C./min to 250° C. The column outlet was coupled via a heated transfer line at 250° C. into the ion source of the mass spectrometer operated at 70 eV in electron ionization (EI) mode. The source temperature was at 200° C. and the detector photomultiplier at 500V. Full scan MS data acquisition was carried out from m/z 30 to 300, with 0.6 sec scan and 0.05 sec inter scan delay.
The results are shown in Table 3, in each case the “predicted product” being the product which would be produced if decarboxylation of the weak acid were to take place.

[5] = cited from earlier work
[6] = tested on: decarboxylase from mould spores; details: 1 mM sorbic acid, equimolar 1,3-pentadiene in headspace within 18 hours; cited from earlier work
[7] = Table 1, monocarboxylic weak acids
[8] = Table 2, most preferred weak acids

SMILES	GCMS Peak area [4]	Pka [5, 7]	other results
Cc1ccc(C=CC(=O)O)cc1 [4-Methyl-cinnamic acid]	11013	–	growth of PAD1-containing yeast cells on agar [1]: formed large colonies; growth of Δ pad1 yeast on agar [2]: barely perceptible; concentration range showing good selection for PAD1-containing yeasts [3]: 0.075 to 0.11 mM
CCCCC/C=C/C(=O)O [trans-2-Octenoic acid]	0	3.902	–
CCCC/C=C/C(=O)O [trans-2-Heptenoic acid]	0	3.7839	–
CCCCCCC=CC(=O)O [2-Nonenoic acid]	0	3.9148	–
CCCCCCCC=CC(=O)O [2-Decenoic acid]	0	3.9018	–
O=C(O)C=Cc1ccsc1 [3-(3-Thienyl)acrylic acid]	1586	4.1	Pka [5, 8]: 4.1
CC/C=C/C(=O)O [trans-2-Pentenoic acid]	0	4.1578	–
CC/C=C\CC(=O)O [cis-3-Hexenoic acid]	0	4.608	–
C/C=C/C(=O)O [Crotonic acid]	0	4.17	–
O=C(O)C=Cc1cccc(O)c1 [3-Hydroxy-cinnamic acid]	0	4.6	–
O=C(O)/C=C/c1ccc(O)c(O)c1 [Caffeic acid]	0	4.7	–
O=C(O)C=Cc1ccoc1 [3-Furan-acrylic acid]	2165	3.9	Pka [5, 8]: 3.9
O=C(O)C(F)=Cc1ccccc1 [alpha-fluoro-cinnamic acid]	2659	4.45	Pka [5, 8]: 4.45
CCCCCCC(=O)O [Heptanoic acid]	0	4.8	–
C=CC=CC(=O)O [2,4-Pentadienoic acid]	107	4.72	Pka [5, 8]: 4.72
O=C(O)C=Cc1cccs1 [3-(2-Thienyl)acrylic acid]	20571	4.2	Pka [5, 8]: 4.2

SMILES	GCMS Peak area [4]	Pka [5, 7]	other results
CC(C)=CCC/C(C)=C/C(=O)O [Geranic acid]	0	4.7211	–
O=C(O)C/C=C/c1ccccc1 [trans-Styrylacetic acid]	0	4.688	–
C/C=C/CCC(=O)O [trans-4-Hexenoic acid]	0	4.6984	–
C=CCCCC(=O)O [5-Hexenoic acid]	0	4.81	–
O=C(O)C=Cc1ccc(F)cc1 [4-Fluoro-cinnamic acid]	18699	–	concentration range showing good selection for PAD1-containing yeasts [3]: 0.15 to 0.225 mM
CCC/C=C/C(=O)O [trans-2-Hexenoic acid]	0	3.8306	–
CC(=Cc1ccccc1)C(=O)O [alpha-methyl-cinnamic acid]	889	4.45	Pka [5, 8]: 4.45
C/C=C/C=C/C(=O)O [Sorbic acid]	8795	–	removal of weak acid by decarboxylase [6]: completely removed
C=CCC/C=C/C(=O)O [trans, trans-2,6-Heptadienoic acid]	0	3.7528	–
O=C(O)C=Cc1ccccc1O [2-Hydroxy-cinnamic acid]	0	4.7	–
COc1ccc(C=CC(=O)O)c(OC)c1 [2,4-Dimethoxy-cinnamic acid]	30	–	–
COc1cc(/C=C/C(=O)O)ccc1O [Ferulic acid]	0	4.58	–
CC/C=C/CC(=O)O [trans-3-Hexenoic acid]	0	4.608	–
Cc1cccc(C=CC(=O)O)c1 [3-Methyl-cinnamic acid]	8195	–	–
O=C(O)C=Cc1ccc(F)cc1F [2,4-Difluoro-cinnamic acid]	35698	–	–
O=C(O)C=Cc1ccccc1C(=O)O [2-Carboxy-cinnamic acid]	0	–	–

Reference: patent publication US20090092975A1, “SELECTABLE MARKER” (Mologic Ltd, priority 2005, published 2009)
